{"source": "patent US12324855B2", "about": "“Method of safe administration of phosphorylated Tau peptide vaccine” (AC Immune SA, priority 2019, dated 2025)", "test_system": "CD4+ T-cell response in PBMCs from 51 human donors", "assay": "EpiScreen time course T-cell proliferation and IL-2 ELISPOT assays (Example 6)", "assay_type": "cell-based", "conditions": "5 μM peptide, 51 donors; for donors responding, taking into account borderline responses and donors responding in only one of the two assays: SI≥1.90 borderline; for donors responding in both IL-2 ELISPOT and proliferation assays: SI≥2.00", "procedure": "Two 16-mer peptides, Tau 393-408[pS396/pS404] (T3.5 having the amino acid sequence of SEQ ID NO:2) and Tau393-408 (T3.6 having the amino acid sequence of SEQ ID NO:4) were tested in EpiScreen™ time course T-cell assays for the capacity to induce CD4^+ T-cell response in 51 human donors.\nEpiScreen™ Time Course T-cell Proliferation Assays and IL-2 ELISPOT Assays\nPBMCs from 51 human donors were stimulated with either peptide at a final concentration of 5 μM. For each donor, a reproducibility control (cells incubated with 100 μg/mL KLH), a benchmark clinical control (cells incubated with 0.3 μM humanized A33) and a culture medium only well were also included. Proliferation and IL-2 production were evaluated after different time points.\nFor proliferation assays and IL-2 ELISPOT assays, an empirical threshold of a Stimulation Index (SI) equal to or greater than two (SI≥2.00) has been previously established whereby samples inducing responses above this threshold are deemed positive whereas SI≥1.90 were considered as borderline responders.\nPrevious EpiScreen™ time course T-cell assays with a range of biologics have shown a clear correlation between the percentage of donor T-cell responses in the EpiScreen™ assay and the level of immunogenicity observed in the clinic. In general, protein therapeutics that induce >10% positive responses in the EpiScreen™ assay are associated with a significant risk of immunogenicity in the clinic.", "note": "Square brackets hold non-standard residues; d marks the D form. Ends that are not written are not given here. pS = N[C@@H](COP(=O)(O)O)C(=O)O"}
{"substance": "VYKSPVVSGDTSPRHL (tau peptide) [Tau 393-408, 16-mer non-phosphorylated Tau peptide]", "values": [{"measurement": "donors responding, taking into account borderline responses and donors responding in only one of the two assays", "result": 8, "unit": "%"}, {"measurement": "donors responding in both IL-2 ELISPOT and proliferation assays", "result": 4, "unit": "%"}]}
{"substance": "VYK[pS]PVVSGDT[pS]PRHL [Tau 393-408 [pS396/pS404]]", "values": [{"measurement": "donors responding, taking into account borderline responses and donors responding in only one of the two assays", "result": 8, "unit": "%"}, {"measurement": "donors responding in both IL-2 ELISPOT and proliferation assays", "result": 2, "unit": "%"}]}
